# Source: US9512161B2, “Hydroxyl, keto, and glucuronide derivatives of 3-(4-(7H-pyrrolo[2,3-D]pyrimidin-4-yl)-1H-pyrazol-1-yl)-3-cyclopentylpropanenitrile” (Incyte Corporation, priority 2009, dated 2016)
# Test: Metabolite profiling of plasma and urine from human subjects after administration of Compound I (HPLC-MS)
# Assay type: in vivo
# Details: human subjects dosed with Compound I; LC-MS detection
# Description: Metabolites 1-39 were isolated from human, rat or dog urine, plasma, or feces after administration of Compound I in connection with pharmacokinetic and toxicokinetic studies. The identity of the metabolites were determined after isolation of the metabolite using HPLC methods. Tandem MS/MS analysis and higher order MS^n experiments were conducted as required to elucidate structural information.
# Plasma samples from all subjects were pooled by subject and/or by time point. The pooled plasma samples were prepared for HPLC-Radiometric analysis as follows: Aliquots of the pooled plasma samples were initially extracted with approximately two equivalent (W/V) volumes of 1% formic acid in HPLC-grade acetonitrile, followed by vigorous vortexing, and centrifugation to remove denatured plasma proteins. The supernatant was reserved and passed through a pre-conditioned Waters C-18 Solid phase extraction cartridge, and the filtrate retained. The SPE cartridge was retained. The remaining plasma pellet was then extracted three times with 1% formic acid in HPLC-grade acetonitrile/water (90/10), with centrifugation after each extraction. All supernatants were reserved. Each formic acid/acetonitrile/water extraction supernatant was used to elute the SPE cartridge. The SPE cartridge was then rinsed with 1% formic acid in methanol. All eluants were retained, combined, and evaporated under a stream of nitrogen at 30° C. The remainder of this extraction was reconstituted in approximately 0.6 ml of 0.1% formic acid in water, vortexed and centrifuged to remove particulate matter. The supernatant was then analyzed by HPLC-Flow Radiometry and HPLC-MS.
# Aliquots of approximately equal amounts of urine from each of the subjects were pooled to represent appropriate time intervals post-dose. Prior to HPLC-Radiometric analysis, each pooled urine sample was centrifuged at 4,000 rpm for 10 min to remove particulate matter, then analyzed directly.
# All samples were analyzed by either HPLC-Flow radiometry or HPLC-MS using analytical systems that were as identical as practicable. The HPLC-Flow Radiometry system consisted of an Agilent HP 1100 series Quaternary pump, Autosampler, and UV detector interfaced with a Raytest Ramona-90 flow scintillation detector with a 500 μL liquid scintillation cell. […] Mobile phase “A” consisted of 0.1% formic acid in HPLC-grade water, with mobile phase “B” consisting of HPLC-grade methanol/acetonitrile (1:1). Elution of analytes was achieved through use of a linear increasing gradient of mobile phase “B”. Two different gradient elution methods were employed at various times as needed. Chromatographic conditions for these two methods are outlined below in Tables 3 and 4. […]
row,SMILES,Matrix in which the metabolite was observed/found
1,"N#CCC(C1CCCC1)n1cc(-c2[nH]c(=O)nc3c2CC(=O)N3)cn1 (stereo not shown) [Compound 31, 3-cyclopentyl-3-(4-(2,6-dioxo-3,5,6,7-tetrahydro-2H-pyrrolo[2,3-d]pyrimidin-4-yl)-1H-pyrazol-1-yl)propanenitrile]",urine
2,"N#CCC(C1CCCC1)n1cc(-c2nc(O)nc3c2C(=O)CN3)cn1 (stereo not shown) [Compound 32, 3-cyclopentyl-3-(4-(2-hydroxy-5-oxo-6,7-dihydro-5H-pyrrolo[2,3-d]pyrimidin-4-yl)-1H-pyrazol-1-yl)propanenitrile]",plasma and urine
3,"N#CCC(C1CCCC1)n1cc(-c2ncnc3c2C(O)C(O)N3)cn1 (stereo not shown) [Compound 40, 3-cyclopentyl-3-(4-(5,6-dihydroxy-6,7-dihydro-5H-pyrrolo[2,3-d]pyrimidin-4-yl)-1H-pyrazol-1-yl)propanenitrile]",plasma and urine
4,"N#CCC(C1CCCC1)n1cc(-c2ncnc3c2ccn3C2OC(C(=O)O)C(O)C(O)C2O)cn1 (stereo not shown) [Compound 41, 6-(4-(1-(2-cyano-1-cyclopentylethyl)-1H-pyrazol-4-yl)-7H-pyrrolo[2,3-d]pyrimidin-7-yl)-3,4,5-trihydroxytetrahydro-2H-pyran-2-carboxylic acid]",urine
